From patent US20250051319A1 (AUGUSTINE THERAPEUTICS, priority 2021, published 2025)

Target: catalytic domain 2 (CD2) of HDAC6 (Homo sapiens (Human), UniProt Q9UBN7)
Test: Cellular target engagement assay - NanoBRET
Assay type: cell-based
Conditions: NanoLuc-HDAC6(CD2) in HEK293T cells, 2 hours, read-out: IC50 (HDAC6(CD2) interaction)
Description: NanoBRET target engagement was performed against the catalytic domain 2 (CD2) of HDAC6, with minor modifications of kit manufacturer protocol (Promega). Expression of exogenous NanoLuc-HDAC6(CD2) fusion and in HEK293T was achieved following transient transfection with FuGENE HD Transfection Reagent (Promega). The intracellular target engagement assay on HDAC6(CD2) was performed in a 384-well plate format with 8,000 cells per well and a tracer concentration of 0.125 μM or 0.600 μM for HDAC6(CD2). Compounds (dissolved in 100% DMSO) or DMSO (vehicle) were added either manually by diluting them in culture medium at 8× final assay concentration and then adding 5 μL to assay plate or in an automated way by adding […] compound to 5 μL OptiMEM without phenol red (Gibco) using the Echo650 (Labcyte). Tracer solution was added to the cells before seeding 35 μL cell/tracer mixture in the assay plate. The final reaction volume was 40 μL, final DMSO concentration was 1.4% (manual compound addition) or 1.25% (automated compound addition). Assay plates were incubated at 37° C. in a humidified atmosphere containing 5% C02 for 2 hours. The NanoBRET Nano-glo Substrate/Inhibitor was prepared by diluting NanoBRET Nano-Glo Substrate (1:332) and Extracellular Inhibitor (1:1000) in assay medium (Promega). […] BRET ratios were calculated from acceptor/donor signal ratio (mBRET=acceptor/donor*1000) and normalized for each plate. Percentage inhibition was calculated by setting the mBRET obtained with cells without tracer to 100%, while the mBRET obtained with uninhibited cells with tracer was set to 0%. IC50-values were calculated from the percentage inhibition with the log(inhibitor) vs. response—Variable slope (four parameters) nonlinear regression in GraphPad Prism software.

Chain of catalytic domain 2 (CD2) of HDAC6 (Q9UBN7 482-800): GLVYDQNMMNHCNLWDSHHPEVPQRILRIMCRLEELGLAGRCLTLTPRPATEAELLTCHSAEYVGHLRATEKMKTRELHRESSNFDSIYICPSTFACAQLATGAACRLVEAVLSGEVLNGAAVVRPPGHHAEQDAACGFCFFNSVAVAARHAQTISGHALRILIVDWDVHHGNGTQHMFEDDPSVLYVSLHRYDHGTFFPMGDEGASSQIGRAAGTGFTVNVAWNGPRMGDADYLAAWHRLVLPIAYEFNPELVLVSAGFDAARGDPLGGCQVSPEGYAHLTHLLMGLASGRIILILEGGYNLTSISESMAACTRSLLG

Row | SMILES | IC50 [nM]
1 | Cc1nc(SCC(=O)c2ccc(CNC(=O)CO)s2)c2ccc(F)cc2n1 [Compound 68, N-((5-(2-((7-fluoro-2-methylquinazolin-4-yl)thio)acetyl)thiophen-2-yl)methyl)-2-hydroxyacetamide] | 100 to 500
2 | Cc1nc(SCC(=O)c2ccc(CNC(=O)CO)s2)c2cc(OC3CC3)ccc2n1 [Compound 77, N-((5-(2-((6-cyclopropoxy-2-methylquinazolin-4-yl)thio)acetyl)thiophen-2-yl)methyl)-2-hydroxyacetamide] | ≤ 100
3 | Cc1nc(SCC(=O)c2ccc(CNC(=O)CO)s2)c2cc(N3CCOCC3)ccc2n1 [Compound 81, 2-hydroxy-N-((5-(2-((2-methyl-6-morpholinoquinazolin-4-yl)thio)acetyl)thiophen-2-yl)methyl)acetamide] | ≤ 100
4 | Cc1nc(SCC(=O)c2ccc(CNC(=O)CO)s2)c2cc(N3CCC(F)(F)C3)ccc2n1 [Compound 84, N-((5-(2-((6-(3,3-difluoropyrrolidin-1-yl)-2-methylquinazolin-4-yl)thio)acetyl)thiophen-2-yl)methyl)-2-hydroxyacetamide] | ≤ 100
5 | Cn1ncc2c(SCC(=O)c3ccc(C4CCN(C(=O)CO)C4)s3)ncnc21 (stereo not shown) [Compound 86, 2-hydroxy-1-(3-(5-(2-((1-methyl-1H-pyrazolo[3,4-d]pyrimidin-4-yl)thio)acetyl)thiophen-2-yl)157yrrolidine-1-yl)ethan-1-one] | 1000 to 10000
6 | Cn1ncc2c(SCC(=O)c3ccc(CNS(=O)(=O)C4CC4)s3)ncnc21 [Compound 89, N-((5-(2-((1-methyl-1H-pyrazolo[3,4-d]pyrimidin-4-yl)thio)acetyl)thiophen-2-yl)methyl)cyclopropanesulfonamide] | 1000 to 10000
7 | Cn1ncc2c(SCC(=O)c3ccc(C4CCN(S(N)(=O)=O)C4)s3)ncnc21 (stereo not shown) [Compound 96, 3-(5-(2-((1-methyl-1H-pyrazolo[3,4-d]pyrimidin-4-yl)thio)acetyl)thiophen-2-yl)pyrrolidine-1-sulfonamide] | 500 to 1000
8 | CC(=O)NCCc1ccc(C(=O)CSc2nc(C(F)(F)F)nc3ccccc23)s1 [Compound 100, N-(2-(5-(2-((2-(trifluoromethyl)quinazolin-4-yl)thio)acetyl)thiophen-2-yl)ethyl)acetamide] | 100 to 500
9 | Cn1ncc2c(SCC(=O)c3ccc(CNC(=O)C(C)(C)C)s3)ncnc21 [Compound 102, N-((5-(2-((1-methyl-1H-pyrazolo[3,4-d]pyrimidin-4-yl)thio)acetyl)thiophen-2-yl)methyl)pivalamide] | 100 to 500
10 | O=C(CO)NCc1ccc(C(=O)CSc2nc3cc(C(F)(F)F)ccc3o2)s1 [Compound 105, 2-hydroxy-N-((5-(2-((5-(trifluoromethyl)benzo[d]oxazol-2-yl)thio)acetyl)thiophen-2-yl)methyl)acetamide] | 1000 to 10000
11 | Cc1nc(SCC(=O)c2ccc(CNC(=O)CO)s2)c2cc(C3CC3)ccc2n1 [Compound 106, N-((5-(2-((6-cyclopropyl-2-methylquinazolin-4-yl)thio)acetyl)thiophen-2-yl)methyl)-2-hydroxyacetamide] | ≤ 100
12 | Cc1nc(SCC(=O)c2ccc(CNC(=O)C3CC3(F)F)s2)c2cc(OC(F)(F)F)ccc2n1 (stereo not shown) [Compound 120, 2,2-difluoro-N-((5-(2-((2-methyl-6-(trifluoromethoxy)quinazolin-4-yl)thio)acetyl)thiophen-2-yl)methyl)cyclopropane-1-carboxamide] | 100 to 500
13 | O=C(CSc1nc(C(F)(F)F)nc2ncccc12)c1ccc(CNS(=O)(=O)CC(F)(F)F)s1 [Compound 123, 2,2,2-trifluoro-N-((5-(2-((2-(trifluoromethyl)pyrido[2,3-d]pyrimidin-4-yl)thio)acetyl)thiophen-2-yl)methyl)ethane-1-sulfonamide] | ≤ 100
14 | CCS(=O)(=O)NCc1ccc(C(=O)CSc2nc(C(F)(F)F)nc3ncccc23)s1 [Compound 127, N-((5-(2-((2-(trifluoromethyl)pyrido[2,3-d]pyrimidin-4-yl)thio)acetyl)thiophen-2-yl)methyl)ethanesulfonamide] | ≤ 100

Other lines, results leading:

Row | IC50 [nM] | SMILES
15 | 100 to 500 | Cc1nc(SCC(=O)c2ccc(CNC(=O)CO)s2)c2cc(F)ccc2n1 [Compound 67, N-((5-(2-((6-fluoro-2-methylquinazolin-4-yl)thio)acetyl)thiophen-2-yl)methyl)-2-hydroxyacetamide]
16 | 100 to 500 | COc1ccc2c(SCC(=O)c3ccc(CNC(=O)CO)s3)nc(C)nc2c1 [Compound 70, 2-hydroxy-N-((5-(2-((7-methoxy-2-methylquinazolin-4-yl)thio)acetyl)thiophen-2-yl)methyl)acetamide]
17 | ≤ 100 | Cc1nc(SCC(=O)c2ccc(CNC(=O)CO)s2)c2cc(NCC3CC3)ccc2n1 [Compound 78, N-((5-(2-((6-((cyclopropylmethyl)amino)-2-methylquinazolin-4-yl)thio)acetyl)thiophen-2-yl)methyl)-2-hydroxyacetamide]
18 | ≤ 100 | COc1ccc2nc(C(F)(F)F)nc(SCC(=O)c3ccc(CNC(=O)CO)s3)c2c1 [Compound 80, 2-hydroxy-N-((5-(2-((6-methoxy-2-(trifluoromethyl)quinazolin-4-yl)thio)acetyl)thiophen-2-yl)methyl)acetamide]
19 | ≤ 100 | Cc1nc(SCC(=O)c2ccc(CNC(=O)CO)s2)c2cc(N3CCCCC3)ccc2n1 [Compound 82, 2-hydroxy-N-((5-(2-((2-methyl-6-(piperidin-1-yl)quinazolin-4-yl)thio)acetyl)thiophen-2-yl)methyl)acetamide]
20 | ≤ 100 | Cc1nc(SCC(=O)c2ccc(CNC(=O)CO)s2)c2cc(N3CCCOCC3)ccc2n1 [Compound 83, 2-hydroxy-N-((5-(2-((2-methyl-6-(1,4-oxazepan-4-yl)quinazolin-4-yl)thio)acetyl)thiophen-2-yl)methyl)acetamide]
21 | 1000 to 10000 | Cn1ncc2c(SCC(=O)c3ccc(CNS(=O)(=O)c4ccccc4)s3)ncnc21 [Compound 88, N-((5-(2-((1-methyl-1H-pyrazolo[3,4-d]pyrimidin-4-yl)thio)acetyl)thiophen-2-yl)methyl)benzenesulfonamide]
22 | ≤ 100 | CC(=O)NCc1ccc(C(=O)CSc2nc(C(F)(F)F)nc3ccccc23)s1 [Compound 99, N-((5-(2-((2-(trifluoromethyl)quinazolin-4-yl)thio)acetyl)thiophen-2-yl)methyl)acetamide]
23 | 100 to 500 | CC(=O)NCCc1ccc(C(=O)CSc2nc3nc(C)ccc3o2)s1 [Compound 104, N-(2-(5-(2-((5-methyloxazolo[4,5-b]pyridin-2-yl)thio)acetyl)thiophen-2-yl)ethyl)acetamide]
24 | 100 to 500 | Cc1cc2nc(C(F)(F)F)nc(SCC(=O)c3ccc(CNC(=O)CO)s3)n2n1 [Compound 107, 2-hydroxy-N-((5-(2-((7-methyl-2-(trifluoromethyl)pyrazolo[1,5-a][1,3,5]triazin-4-yl)thio)acetyl)thiophen-2-yl)methyl)acetamide]
25 | 100 to 500 | Cc1nc(SCC(=O)c2ccc(CNC(=O)C3CC3(F)F)s2)c2cccnc2n1 (stereo not shown) [Compound 110, 2,2-difluoro-N-((5-(2-((2-methylpyrido[2,3-d]pyrimidin-4-yl)thio)acetyl)thiophen-2-yl)methyl)cyclopropane-1-carboxamide]
26 | 100 to 500 | Cn1cc2c(SCC(=O)c3ccc(CNC(=O)C4CC4(F)F)s3)nc(C(F)(F)F)nc2n1 (stereo not shown) [Compound 111, 2,2-difluoro-N-((5-(2-((2-methyl-6-(trifluoromethyl)-2H-pyrazolo[3,4-d]pyrimidin-4-yl)thio)acetyl)thiophen-2-yl)methyl)cyclopropane-1-carboxamide]
27 | ≤ 100 | O=C(CO)NCc1ccc(C(=O)CSc2nc(C(F)(F)F)nc3cc(C4CC4)nn23)s1 [Compound 112, N-((5-(2-((7-cyclopropyl-2-(trifluoromethyl)pyrazolo[1,5-a][1,3,5]triazin-4-yl)thio)acetyl)thiophen-2-yl)methyl)-2-hydroxyacetamide]
28 | ≤ 100 | COc1cc2c(SCC(=O)c3ccc(CNC(=O)CO)s3)nc(C)nc2cn1 [Compound 121, 2-hydroxy-N-((5-(2-((6-methoxy-2-methylpyrido[3,4-d]pyrimidin-4-yl)thio)acetyl)thiophen-2-yl)methyl)acetamide]
29 | ≤ 100 | O=C(CSc1nc(C(F)(F)F)nc2ncccc12)c1ccc(CNS(=O)(=O)C2CC2)s1 [Compound 122, N-((5-(2-((2-(trifluoromethyl)pyrido[2,3-d]pyrimidin-4-yl)thio)acetyl)thiophen-2-yl)methyl)cyclopropanesulfonamide]
30 | ≤ 100 | CN(Cc1ccc(C(=O)CSc2nc(C(F)(F)F)nc3ncccc23)s1)C(=O)CO [Compound 131, 2-hydroxy-N-methyl-N-((5-(2-((2-(trifluoromethyl)pyrido[2,3-d]pyrimidin-4-yl)thio)acetyl)thiophen-2-yl)methyl)acetamide]
31 | 100 to 500 | COc1ccc2nc(C(F)(F)F)nc(SCC(=O)c3ccc(CNC(=O)C(C)(C)O)s3)c2c1 [Compound 134, 2-hydroxy-N-((5-(2-((6-methoxy-2-(trifluoromethyl)quinazolin-4-yl)thio)acetyl)thiophen-2-yl)methyl)-2-methylpropanamide]
